Reference: US20100151004A1, “MODULATION OF DRUG SENSITIVITY” (UNIVERSITY OF MEDICINE AND DENTISTRY OF NEW JERSEY, priority 2007, published 2010)
Entries after “also recorded” stand apart in the source; their conditions may differ.

Key:
HCT-8/4hFU cells [1] = test: MTS cytotoxicity assay, 4 h bolus drug exposure; type: cell-based, human
From the text: Cancer Res 1992 Apr. […] Louis, Mo., USA).

HCT-8/4hFU cells [2] = test: MTS cytotoxicity assay, continuous 5-FU exposure (4 days); type: cell-based, human
Description: Number of viable cells was determined by MTS assay.

HCT-8/4hFU tumor = test: Colorectal cancer xenograft model, tumor volume; type: in vivo, mice; details: for tumor response (tumor volume): one course, DAC 3×0.5 mg/kg i.p., 5-FU 1×50 mg/kg i.p.; for tumor response (tumor growth): two courses, DAC 3×0.5 mg/kg/course i.p., 5-FU 1×50 mg/kg/course i.p.
Description: (§1) Two independent experiments were performed and animals received either 1 or 2 courses of treatment (1 or 2 weeks) followed by an additional week of observation. […] Prior to the experiment tumors were grounded to a powder in LN2. Following the tumor harvest or if tumor diameter is greater than 1 cm, or greater than 15% weight loss occurred the animals were euthanized. All experiments were performed according to the protocol approved by The Institutional Animal Care and Use Committee at RWJMS. […] Gels were quantitated using ChemiDoc XRS machine and Quantity One 1-D analysis software (BioRad, Hercules, Calif., USA).

HCT-8/P tumor = test: Colorectal cancer xenograft model, tumor volume; type: in vivo, mice
Description: as §1

colorectal cancer = details: patients, typical clinical response; cited from earlier work
[3] = tested on: UMPK expression in HCT-8/4hFU cells; test: UMPK mRNA (Q-RT-PCR) and protein (Western blotting) after DAC exposure in cultured cells; type: cell-based, human; details: low-dose DAC for 24 h
Description: (§2) Cells (1-5×10^6) were trypsinized, washed twice with PBS and kept frozen in −80° C. until used. Cell pellets or powdered tumors (vide infra) were thawed and resuspended in 0.5 ml of RIPA buffer (50 mM Tris-HCl buffer pH 7.4, 3 mM sodium fluoride and 4 mM DTT) supplemented with protease inhibitors. Samples were sonicated (2×20 s, 60% power) on ice and centrifuged for 20 min at 20,000 rpm. […] of lysate was loaded onto 10% SDS-PAGE gel and after transfer to nitrocellulose probed with anti-UMPK polyclonal antibody (1:1000) for 2 hours (gift of Dr Y. C. Cheng, Yale University) and secondary ant-rabbit antibody (1:5000) for 1 hour (Sigma St Louis, Mo., USA) or anti-α-tubulin (1:10000) for 1 hour (Sigma, St Louis, Mo., USA) and anti-mouse antibody (1:2000) for 0.5 h (Santa Cruz, Calif., USA) as a control.
(§3) Total RNA was extracted from 1-5×10^6 cells or powdered tumors using Trizol Reagent (Invitrogen, Carlsbad, Calif., USA) and run on 1% folmaldehyde-agarose gel to assess the quality of the RNA. […] Delta delta Ct method was used to calculate relative fold change in mRNA level (Livak K J, Schmittgen T D. Analysis of relative gene expression data using real-time quantitative PCR and the 2(−Delta Delta C(T)) Method. Methods 2001 December; 25(4):402-8). […]

[4] = tested on: UMPK expression in HCT-8/P cells; test: UMPK expression after DAC exposure in cultured cells; type: cell-based, human; details: low-dose DAC for 24 h
Description: as §2, §3

UMPK in HCT-8/P tumors = test: UMPK mRNA in xenograft tumors after DAC treatment (Q-RT-PCR); type: in vivo, mice; details: HCT-8/P group
Description: (§4) Total RNA was extracted from 1-5×10^6 cells or powdered tumors using Trizol Reagent (Invitrogen, Carlsbad, Calif., USA) and run on 1% folmaldehyde-agarose gel to assess the quality of the RNA. Gene specific primers and fluorescent-labeled probe (FAM and TAMRA) were designed using Primer Express Software from ABI (Applied Biosystems, Foster City, Calif., USA). 50 ng of RNA was amplified in one-step RT-PCR reaction (Applied Biosystems, Foster City, Calif., USA) using TaqMan Real-Time PCR machine (7000 SDS). 18SrRNA (FAM) (Applied Biosystems, Foster City, Calif., USA) or β-actin (FAM-TAMRA) was used to normalize the results. Delta delta Ct method was used to calculate relative fold change in mRNA level (Livak K J, Schmittgen T D. Analysis of relative gene expression data using real-time quantitative PCR and the 2(−Delta Delta C(T)) Method. Methods 2001 December; 25(4):402-8). The sequence of UMPK forward primer is 5′-AAGAAGGAAAGATTGTACCAGTTGAGA-3′ (SEQ ID NO: 7), reverse primer 5′-GGAAACCCATCAATCAAGAATTTATT-3′ (SEQ ID NO: 8), and probe 5-FAM-AGAGGGAAATGGATCAGACAATGGCTGC-TAMRA-3′ (SEQ ID NO: 9).
(§5) HCT-8/P or HCT-8/4hFU cells (2.5×10^6) were injected subcutaneously into SKID nu/nu mice (Taconic, Germantown, N.Y., USA). When tumors were palpable animals were randomized into 4 groups (5-10 animals per group) and treated with DAC (Tuesday, Wednesday, Thursday, 0.5 mg/kg, i.p.), or 5-FU (Friday, 50 mg/kg, i.p.), or DAC & 5-FU, or PBS as a control. Measurements of tumor size and animal weight were performed every 3-4 days. Two independent experiments were performed and animals received either 1 or 2 courses of treatment (1 or 2 weeks) followed by an additional week of observation. In order to assay UMPK induction in tumors, animals from DAC alone, and DAC & 5-FU groups received additional course of DAC treatment towards the end of experiment. 24 hours after the third dose of DAC was administered animals were anesthetized, and tumors harvested, washed in PBS and flash frozen in LN2. Prior to the experiment tumors were grounded to a powder in LN2. Following the tumor harvest or if tumor diameter is greater than 1 cm, or greater than 15% weight loss occurred the animals were euthanized. All experiments were performed according to the protocol approved by The Institutional Animal Care and Use Committee at RWJMS.

[5] = tested on: UMPK mRNA in HCT-8/4hFU tumors; test: as above; type: in vivo, mice
Description: as §4, §5

[6] = tested on: UMPK promoter and first exon CpG sites in HCT-8/4hFU cells; test: Pyro Q-CpG analysis of methylation; type: cell-based, human; details: HCT-8/4hFU + 0.5 μM DAC for 24 h
Description: DNA was extracted from tumors or cells using standard phenol-chlorophorm-isoamyl alcohol extraction (Invitrogen, Carlsbad, Calif., USA). 2 μg of sample DNA or 1 μg of control DNA was bisulfite modified using EZ DNA Methylation Kit (Zymo Research, Orange, Calif., USA). 1 ul out of 10 ul of post bisulfite modified DNA was used for PCR. Bisulfite treated fetal cell DNA and in vitro methylated human DNA (Chemicon, Millipore, Billerica, Mass.) were used in the assay development and PCR bias testing. The following reagents were mixed together in preparation for the Pyrosequencing reaction: Streptavidin beads 2 μl, 2× binding buffer 40 μl, PCR product 10 μl, water 28 μl. The assay was performed by EpigenDx (Worcester, Mass., USA) using PSQHS 96 System. Methylation of 42 CpG sites was analyzed.

HCT-8/P cells = test: MTS cytotoxicity assay, 4 h bolus drug exposure
[7] = one course, DAC 3×0.5 mg/kg i.p., 5-FU 1×50 mg/kg i.p.
[8] = two courses, DAC 3×0.5 mg/kg/course i.p., 5-FU 1×50 mg/kg/course i.p.
[9] = DAC 0.0005 μM-0.5 μM, 24 h exposure

Which results are given for `O=c1[nH]cc(F)c(=O)[nH]1` [5-FU, 5-Fluorouracil]?
fold resistance to bolus 5-FU, HCT-8/4hFU versus HCT-8/P (HCT-8/4hFU cells [1]; bolus 4 h exposure, cell viability assay): 3-4 fold; sensitivity to continuous exposure to 5-FU, HCT-8/4hFU versus HCT-8/P (HCT-8/4hFU cells [2]): equally sensitive; tumor response (tumor volume) (HCT-8/4hFU tumor): resistant; tumor response (tumor growth) (HCT-8/4hFU tumor): partial response; tumor response (tumor growth) (HCT-8/P tumor; [7]): responded; tumor response (tumor growth) (HCT-8/P tumor; [8]): responded; response rate (colorectal cancer): less than 30%

For `O=c1[nH]c(=O)n([C@@H]2O[C@H](CO)[C@@H](O)[C@H]2O)cc1F` [5-FUR, 5-fluorouridine], which “increase in the IC50 value, HCT-8/4hFU as compared to HCT-8/P cells” value (HCT-8/4hFU cells [1]; 5-FUR 4 h exposure) is on record?
The value was ≤ 10 fold.

Which “restoration of sensitivity of HCT-8/4hFU cells to that seen in HCT-8/P cells” value (HCT-8/4hFU cells [1]; 0.02 μM DAC 24 h pretreatment) does the source give for `Nc1ncn([C@H]2C[C@H](O)[C@@H](CO)O2)c(=O)n1` [DAC, 5-Azadeoxycytidine] here?
The value was “able to restore the sensitivity”.

And the cell kill (HCT-8/4hFU cells [1]; [9])?
The cell kill was “less than 20%”.

And the “effect of DAC pretreatment on sensitivity to bolus 5-FU” value (HCT-8/4hFU cells [1]; DAC 24 h pretreatment, then 5-FU 4 h)?
The value was “makes HCT-8/4hFU cells sensitive”.

What about the “effect of DAC pretreatment on sensitivity to 5-FUR” value (HCT-8/4hFU cells [1]; DAC 24 h pretreatment, then 5-FUR 4 h) of the same compound?
Its value is “makes HCT-8/4hFU cells sensitive”.

And the “tumor response (tumor volume)” value (HCT-8/4hFU tumor)?
Its value is “resistant”.

What about the “tumor response (tumor growth)” value (HCT-8/4hFU tumor) of the same compound?
Its value is “No significant response”.

And the “tumor response (tumor growth)” value (HCT-8/P tumor; [7])?
Its value is “most significant delay in the tumor growth”.

And the “tumor response (tumor growth)” value (HCT-8/P tumor; [8])?
The value was “most significant effect”.

What about the “UMPK mRNA as well as protein levels” value [3] of the same compound?
The value was “dose dependent increase”.

What about the UMPK expression [4] of the same compound?
Its UMPK expression is “No increase”.

What about the “increase of UMPK after DAC treatment” value (UMPK in HCT-8/P tumors) of the same compound?
Its value is “No increase”.

And the “increase in UMPK mRNA as compared to untreated tumor” value ([5]; after one course of DAC (3×0.5 mg/kg))?
The value was 4 fold.

What about the “increase in UMPK mRNA as compared to untreated tumor” value ([5]; after two and three weeks of DAC treatment) of the same compound?
Its value is ≤ 20 fold.

What about the “average increase of UMPK in tumors of the group of animals” value ([5]; animals of the two-course experiment, relative to untreated HCT-8/4hFU tumors) of the same compound?
Its value is 8.5 fold.

And the “Mean methylation across 36 CpG sites” value [6]?
The value was 2.74.

And the cell kill (HCT-8/P cells; [9])?
The cell kill was “less than 20%”.

And the “effect of DAC on sensitivity of HCT-8/P cells to 5-FU or 5-FUR” value (HCT-8/P cells; DAC 24 h pretreatment, then 5-FU or 5-FUR 4 h)?
The value was “Much less of an effect; also recorded: do not show increased sensitivity”.
